Patent publication US9422263B2, “Fluoro-substituted 3,5-dicyano-4-(1H-indazol-5-yl)-2,6-dimethyl-1,4-dihydropyridine derivatives and methods of use thereof” (BAYER PHARMA AKTIENGESELLSCHAFT, priority 2009, dated 2016)

Tests used:
[1] = Pharmacokinetics after intravenous administration of test compounds; format: in vivo, rat; conditions: for in vivo PK, rat i.v. CLblood: male Wistar rats, total blood clearance; for in vivo PK, rat i.v. Fmax, calc: Fmax,calc=[1−CLblood/Qh]*100, Qh 4.2 L per h per kg
Description: Pharmacokinetics after Intravenous Administration of Test Compounds: Male Wistar rats (Harlan Laboratories) are anesthetized and a catheter is inserted into the jugular vein of the rat. The next day, a defined dose of the test compound is administered as solution by injection into the tail vein. Blood samples are collected through the jugular catheter during the next 24 h (8-11 time points). Blood is centrifuged in heparin-tubes, and each plasma sample is treated with acetonitrile for protein precipitation. After centrifugation, the test compound in the supernatant is quantified using an LC-MS/MS method. The determined plasma concentrations are used for the calculation of pharmacokinetic parameters, such as AUC (area under the plasma concentration vs. time curve), Vss (volume of distribution under steady-state conditions), Cmax (highest test compound concentration observed in plasma following administration), t1/2 (half-life) and CL (total clearance of the test compound from the plasma). For the calculation of the blood clearance, the blood to plasma partitioning is determined by incubation of the test compound in blood of rats. After separation of the plasma by centrifugation, the concentration in the plasma is determined by an LC-MS/MS method. Under the assumption that the test compound is completely absorbed, the theoretically maximum achievable bioavailability Fmax,calc is calculated by the equation Fmax,calc=[1−CLblood/Qh]*100, wherein CLblood is the total blood clearance and Qh is the hepatic blood flow in rat of 4.2 L per h per kg.

[2] = Pharmacokinetics after peroral administration of test compounds; format: in vivo, rat; conditions: for in vivo PK, rat p.o. F / in vivo PK, rat p.o. AUCnorm: male Wistar rats; for in vivo PK, rat p.o. F: bioavailability; for in vivo PK, rat p.o. AUCnorm: dose and body weight-normalized AUC; for Fraction absorbed fabs, calc: rat p.o., fabs,calc=[F/Fmax,calc]*100
Description: Pharmacokinetics after Peroral Administration of Test Compounds: Male Wistar rats (Harlan Laboratories) are anesthetized and a catheter is inserted into the jugular vein of the rat. The next day, a defined dose of the test compound is administered perorally. Blood samples are collected through the jugular catheter during the next 24 h (8-11 time points). Blood is centrifuged in heparin-tubes, and each plasma sample is treated with acetonitrile for protein precipitation. After centrifugation, the test compound in the supernatant is quantified using an LC-MS/MS method. The determined plasma concentrations are used for the determination of pharmacokinetic parameters, such as AUC (area under the plasma concentration vs. time curve), Cmax (highest test compound concentration observed in plasma following administration), t1/2 (half-life) and F (bioavailability). The fraction of the dose absorbed (fabs,calc) is calculated by the equation fabs,calc=[F/Fmax,calc]*100, wherein F is the determined bioavailability after peroral administration and Fmax,calc is the theoretically maximum achievable bioavailability considering the determined blood clearance and assuming that the test compound is completely absorbed.

| in vivo PK, rat i.v. CLblood [1] [mL/min/kg] | in vivo PK, rat i.v. Fmax, calc [1] [%] | in vivo PK, rat p.o. F [2] [%] | Fraction absorbed fabs, calc [2] [%] | Compound | in vivo PK, rat p.o. AUCnorm [2] [kg·h/L] |
| --- | --- | --- | --- | --- | --- |
| 52.3 | 25 | 33 | 131 | CC1=C(C#N)C(c2ccc3[nH]nc(C)c3c2)C(C#N)=C(C(F)F)N1 (single isomer, unassigned) [Example 3, 2-(Difluoromethyl)-6-methyl-4-(3-methyl-1H-indazol-5-yl)-1,4-dihydropyridine-3,5-dicarbonitrile] | 0.16 |
| 28 | 60 | 62 | 104 | CC1=C(C#N)C(c2ccc3[nH]nc(C)c3c2)C(C#N)=C(C(F)(F)F)N1 (single isomer, unassigned) [Example 6] | 0.70 |
| 4.67 | 93 | 62 | 67 | Cc1n[nH]c2cc(F)c(C3C(C#N)=C(C(F)F)NC(C(F)F)=C3C#N)cc12 [Example 14, 2,6-Bis(difluoromethyl)-4-(6-fluoro-3-methyl-1H-indazol-5-yl)-1,4-dihydropyridine-3,5-dicarbonitrile] | 4.73 |
